Data reported in ChEMBL document CHEMBL4507282, “Data for DCP probe BI-1950” (2021).

Legend:
[1] = test system: Tyrosine-protein kinase ABL1 (Homo sapiens), P00519 [F317L]; settings: Compound concentration 1000.0 nM
[2] = target: Tyrosine-protein kinase ABL1 (Homo sapiens) (UniProt P00519); settings: Compound concentration 1000.0 nM
[3] = target: Tyrosine-protein kinase BTK (Homo sapiens) (UniProt Q06187); settings: Compound concentration 1000.0 nM
[4] = target: Casein kinase I isoform delta (Homo sapiens) (UniProt P48730); settings: Compound concentration 1000.0 nM
[5] = target: Casein kinase I isoform gamma-1 (Homo sapiens) (UniProt Q9HCP0); settings: Compound concentration 1000.0 nM
[6] = target: Epithelial discoidin domain-containing receptor 1 (Homo sapiens) (UniProt Q08345); settings: Compound concentration 1000.0 nM
[7] = target: Serine/threonine-protein kinase 17A (Homo sapiens) (UniProt Q9UEE5); settings: Compound concentration 1000.0 nM
[8] = target: Dual specificity tyrosine-phosphorylation-regulated kinase 1A (Homo sapiens) (UniProt Q13627); settings: Compound concentration 1000.0 nM
[9] = target: Epidermal growth factor receptor (Homo sapiens) (UniProt P00533); settings: Compound concentration 1000.0 nM
[10] = test system: Epidermal growth factor receptor (Homo sapiens), P00533 [UNDEFINED MUTATION]; settings: Compound concentration 1000.0 nM
[11] = test system: Epidermal growth factor receptor (Homo sapiens), P00533 [L858R]; settings: Compound concentration 1000.0 nM
[12] = target: Ephrin type-A receptor 1 (Homo sapiens) (UniProt P21709); settings: Compound concentration 1000.0 nM
[13] = target: Ephrin type-A receptor 4 (Homo sapiens) (UniProt P54764); settings: Compound concentration 1000.0 nM
[14] = target: Ephrin type-A receptor 8 (Homo sapiens) (UniProt P29322); settings: Compound concentration 1000.0 nM
[15] = target: Ephrin type-B receptor 1 (Homo sapiens) (UniProt P54762); settings: Compound concentration 1000.0 nM
[16] = target: Fibroblast growth factor receptor 2 (Homo sapiens) (UniProt P21802); settings: Compound concentration 1000.0 nM
[17] = target: Tyrosine-protein kinase Fgr (Homo sapiens) (UniProt P09769); settings: Compound concentration 1000.0 nM
[18] = test system: Receptor-type tyrosine-protein kinase FLT3 (Homo sapiens), P36888 [R834Q]; settings: Compound concentration 1000.0 nM
[19] = target: Glycogen synthase kinase-3 beta (Homo sapiens) (UniProt P49841); settings: Compound concentration 1000.0 nM
[20] = target: Tyrosine-protein kinase HCK (Homo sapiens) (UniProt P08631); settings: Compound concentration 1000.0 nM
[21] = target: Inhibitor of nuclear factor kappa-B kinase subunit epsilon (Homo sapiens) (UniProt Q14164); settings: Compound concentration 1000.0 nM
Sequence of Inhibitor of nuclear factor kappa-B kinase subunit epsilon (Homo sapiens) (Q14164 whole entry): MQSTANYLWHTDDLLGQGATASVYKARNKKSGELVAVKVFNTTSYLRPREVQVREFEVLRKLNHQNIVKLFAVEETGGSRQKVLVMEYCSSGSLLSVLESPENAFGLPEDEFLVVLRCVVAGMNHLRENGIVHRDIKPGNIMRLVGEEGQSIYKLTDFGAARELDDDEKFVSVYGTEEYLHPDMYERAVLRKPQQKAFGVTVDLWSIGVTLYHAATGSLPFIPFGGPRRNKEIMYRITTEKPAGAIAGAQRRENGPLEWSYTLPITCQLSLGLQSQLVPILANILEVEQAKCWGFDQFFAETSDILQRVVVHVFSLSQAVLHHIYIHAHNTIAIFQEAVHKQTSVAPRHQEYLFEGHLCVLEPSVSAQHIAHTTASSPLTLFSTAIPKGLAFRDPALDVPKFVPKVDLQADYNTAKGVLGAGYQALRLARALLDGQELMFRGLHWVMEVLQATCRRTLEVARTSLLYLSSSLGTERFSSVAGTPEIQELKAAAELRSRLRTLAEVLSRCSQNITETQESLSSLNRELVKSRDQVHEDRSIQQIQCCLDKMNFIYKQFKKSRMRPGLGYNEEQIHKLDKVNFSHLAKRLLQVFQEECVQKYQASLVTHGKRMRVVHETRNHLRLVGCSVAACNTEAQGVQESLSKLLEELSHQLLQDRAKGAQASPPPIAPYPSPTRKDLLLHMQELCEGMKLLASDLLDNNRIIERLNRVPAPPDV

[22] = target: Interleukin-1 receptor-associated kinase 3 (Homo sapiens) (UniProt Q9Y616); settings: Compound concentration 1000.0 nM
Sequence of Interleukin-1 receptor-associated kinase 3 (Homo sapiens) (Q9Y616 whole entry): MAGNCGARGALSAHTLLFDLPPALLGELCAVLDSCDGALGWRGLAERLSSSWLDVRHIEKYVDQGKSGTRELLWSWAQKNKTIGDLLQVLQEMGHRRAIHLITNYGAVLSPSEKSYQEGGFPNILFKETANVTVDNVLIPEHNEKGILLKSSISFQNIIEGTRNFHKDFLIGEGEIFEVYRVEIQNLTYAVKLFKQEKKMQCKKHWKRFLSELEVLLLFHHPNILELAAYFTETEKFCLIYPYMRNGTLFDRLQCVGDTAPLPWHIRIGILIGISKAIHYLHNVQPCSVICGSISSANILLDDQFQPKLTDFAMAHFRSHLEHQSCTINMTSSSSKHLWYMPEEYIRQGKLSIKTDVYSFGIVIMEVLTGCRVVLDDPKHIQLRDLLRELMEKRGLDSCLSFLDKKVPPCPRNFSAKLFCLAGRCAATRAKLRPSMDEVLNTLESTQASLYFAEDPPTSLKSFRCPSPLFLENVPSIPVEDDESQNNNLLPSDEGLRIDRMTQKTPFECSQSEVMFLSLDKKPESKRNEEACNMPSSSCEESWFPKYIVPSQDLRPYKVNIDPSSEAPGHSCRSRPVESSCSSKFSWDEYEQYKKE

[23] = target: Tyrosine-protein kinase ITK/TSK (Homo sapiens) (UniProt Q08881); settings: Compound concentration 1000.0 nM
Sequence of Tyrosine-protein kinase ITK/TSK (Homo sapiens) (Q08881 whole entry): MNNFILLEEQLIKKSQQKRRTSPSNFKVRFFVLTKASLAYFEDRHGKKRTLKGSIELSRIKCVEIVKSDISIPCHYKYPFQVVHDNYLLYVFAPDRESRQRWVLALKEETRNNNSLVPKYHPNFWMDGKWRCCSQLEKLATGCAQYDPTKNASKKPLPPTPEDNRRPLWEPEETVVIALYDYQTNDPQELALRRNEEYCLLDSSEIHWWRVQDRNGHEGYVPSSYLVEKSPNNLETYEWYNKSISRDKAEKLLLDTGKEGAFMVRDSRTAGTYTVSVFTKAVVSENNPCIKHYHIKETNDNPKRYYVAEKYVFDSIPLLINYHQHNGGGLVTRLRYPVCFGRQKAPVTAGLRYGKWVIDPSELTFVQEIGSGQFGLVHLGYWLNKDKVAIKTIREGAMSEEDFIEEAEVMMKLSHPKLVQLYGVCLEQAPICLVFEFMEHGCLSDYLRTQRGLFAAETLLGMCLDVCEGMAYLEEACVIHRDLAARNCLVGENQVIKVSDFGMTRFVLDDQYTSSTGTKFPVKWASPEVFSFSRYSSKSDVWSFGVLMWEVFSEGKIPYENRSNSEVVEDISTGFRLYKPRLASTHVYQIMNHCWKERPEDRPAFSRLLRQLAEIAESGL

[24] = target: Serine/threonine-protein kinase LATS2 (Homo sapiens) (UniProt Q9NRM7); settings: Compound concentration 1000.0 nM
[25] = target: Serine/threonine-protein kinase STK11 (Homo sapiens) (UniProt Q15831); settings: Compound concentration 1000.0 nM
Sequence of Serine/threonine-protein kinase STK11 (Homo sapiens) (Q15831 whole entry): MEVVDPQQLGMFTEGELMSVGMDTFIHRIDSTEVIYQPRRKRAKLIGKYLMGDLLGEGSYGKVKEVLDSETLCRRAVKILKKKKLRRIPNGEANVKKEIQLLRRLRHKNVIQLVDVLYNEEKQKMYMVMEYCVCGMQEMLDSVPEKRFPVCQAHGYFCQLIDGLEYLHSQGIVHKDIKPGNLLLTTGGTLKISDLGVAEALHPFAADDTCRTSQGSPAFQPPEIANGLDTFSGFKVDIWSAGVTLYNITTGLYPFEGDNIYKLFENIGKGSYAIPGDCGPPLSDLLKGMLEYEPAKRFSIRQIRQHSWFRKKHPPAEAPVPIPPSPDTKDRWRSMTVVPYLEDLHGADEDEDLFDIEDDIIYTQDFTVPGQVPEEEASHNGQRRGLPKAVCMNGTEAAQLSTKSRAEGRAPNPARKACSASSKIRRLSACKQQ

[26] = target: Leucine-rich repeat serine/threonine-protein kinase 2 (Homo sapiens) (UniProt Q5S007); settings: Compound concentration 1000.0 nM
[27] = target: Serine/threonine-protein kinase MAK (Homo sapiens) (UniProt P20794); settings: Compound concentration 1000.0 nM
[28] = target: Serine/threonine-protein kinase MARK2 (Homo sapiens) (UniProt Q7KZI7); settings: Compound concentration 1000.0 nM
Sequence of Serine/threonine-protein kinase MARK2 (Homo sapiens) (Q7KZI7 whole entry): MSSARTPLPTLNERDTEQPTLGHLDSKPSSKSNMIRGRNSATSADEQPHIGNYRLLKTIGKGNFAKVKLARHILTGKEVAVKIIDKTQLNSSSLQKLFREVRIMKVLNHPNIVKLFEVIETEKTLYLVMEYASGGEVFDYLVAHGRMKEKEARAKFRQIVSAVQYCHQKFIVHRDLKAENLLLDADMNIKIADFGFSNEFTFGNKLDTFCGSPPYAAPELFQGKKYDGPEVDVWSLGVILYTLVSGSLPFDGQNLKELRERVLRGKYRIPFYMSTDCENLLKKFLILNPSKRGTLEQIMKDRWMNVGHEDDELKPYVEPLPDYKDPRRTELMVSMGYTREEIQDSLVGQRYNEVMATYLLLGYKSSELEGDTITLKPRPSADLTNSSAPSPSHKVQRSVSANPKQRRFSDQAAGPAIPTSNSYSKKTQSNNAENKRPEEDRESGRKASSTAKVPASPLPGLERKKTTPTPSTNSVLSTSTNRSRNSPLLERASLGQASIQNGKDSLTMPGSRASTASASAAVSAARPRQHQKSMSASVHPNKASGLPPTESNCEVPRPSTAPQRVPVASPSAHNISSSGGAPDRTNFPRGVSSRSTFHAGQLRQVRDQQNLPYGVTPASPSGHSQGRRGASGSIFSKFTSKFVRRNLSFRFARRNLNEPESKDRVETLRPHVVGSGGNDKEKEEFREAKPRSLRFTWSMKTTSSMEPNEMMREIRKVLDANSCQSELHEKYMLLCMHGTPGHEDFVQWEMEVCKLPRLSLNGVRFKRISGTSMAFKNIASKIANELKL

[29] = target: Dual specificity mitogen-activated protein kinase kinase 2 (Homo sapiens) (UniProt P36507); settings: Compound concentration 1000.0 nM
[30] = target: Muscle, skeletal receptor tyrosine-protein kinase (Homo sapiens) (UniProt O15146); settings: Compound concentration 1000.0 nM
[31] = target: Serine/threonine-protein kinase Nek10 (Homo sapiens) (UniProt Q6ZWH5); settings: Compound concentration 1000.0 nM
[32] = target: Serine/threonine-protein kinase Nek4 (Homo sapiens) (UniProt P51957); settings: Compound concentration 1000.0 nM
[33] = target: Cyclin-dependent kinase 17 (Homo sapiens) (UniProt Q00537); settings: Compound concentration 1000.0 nM
[34] = target: Cyclin-dependent kinase 18 (Homo sapiens) (UniProt Q07002); settings: Compound concentration 1000.0 nM
Sequence of Cyclin-dependent kinase 18 (Homo sapiens) (Q07002 whole entry): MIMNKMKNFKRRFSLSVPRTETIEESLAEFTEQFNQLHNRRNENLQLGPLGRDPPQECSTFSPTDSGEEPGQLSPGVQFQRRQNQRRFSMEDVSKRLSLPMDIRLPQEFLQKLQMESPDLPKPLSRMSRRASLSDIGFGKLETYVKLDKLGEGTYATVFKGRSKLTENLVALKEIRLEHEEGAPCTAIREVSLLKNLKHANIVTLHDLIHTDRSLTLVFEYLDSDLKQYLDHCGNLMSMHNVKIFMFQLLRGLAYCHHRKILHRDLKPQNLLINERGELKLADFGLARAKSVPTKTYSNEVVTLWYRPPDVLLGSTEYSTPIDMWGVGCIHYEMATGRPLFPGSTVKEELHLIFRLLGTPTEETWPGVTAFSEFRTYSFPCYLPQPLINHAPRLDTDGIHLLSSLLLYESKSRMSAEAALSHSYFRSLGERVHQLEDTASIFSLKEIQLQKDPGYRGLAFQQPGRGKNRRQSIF

[35] = target: 3-phosphoinositide-dependent protein kinase 1 (Homo sapiens) (UniProt O15530); settings: Compound concentration 1000.0 nM
[36] = target: Serine/threonine-protein kinase PLK2 (Homo sapiens) (UniProt Q9NYY3); settings: Compound concentration 1000.0 nM
[37] = target: cGMP-dependent protein kinase 2 (Homo sapiens) (UniProt Q13237); settings: Compound concentration 1000.0 nM
[38] = target: Serine/threonine-protein kinase RIO3 (Homo sapiens) (UniProt O14730); settings: Compound concentration 1000.0 nM
[39] = target: Serine/threonine-protein kinase SBK1 (Homo sapiens) (UniProt Q52WX2); settings: Compound concentration 1000.0 nM
[40] = target: STE20/SPS1-related proline-alanine-rich protein kinase (Homo sapiens) (UniProt Q9UEW8); settings: Compound concentration 1000.0 nM
[41] = target: BDNF/NT-3 growth factors receptor (Homo sapiens) (UniProt Q16620); settings: Compound concentration 1000.0 nM
[42] = target: Sodium-dependent serotonin transporter (Homo sapiens) (UniProt P31645); settings: Compound concentration 10.0 uM
Sequence of Sodium-dependent serotonin transporter (Homo sapiens) (P31645 whole entry, looked up): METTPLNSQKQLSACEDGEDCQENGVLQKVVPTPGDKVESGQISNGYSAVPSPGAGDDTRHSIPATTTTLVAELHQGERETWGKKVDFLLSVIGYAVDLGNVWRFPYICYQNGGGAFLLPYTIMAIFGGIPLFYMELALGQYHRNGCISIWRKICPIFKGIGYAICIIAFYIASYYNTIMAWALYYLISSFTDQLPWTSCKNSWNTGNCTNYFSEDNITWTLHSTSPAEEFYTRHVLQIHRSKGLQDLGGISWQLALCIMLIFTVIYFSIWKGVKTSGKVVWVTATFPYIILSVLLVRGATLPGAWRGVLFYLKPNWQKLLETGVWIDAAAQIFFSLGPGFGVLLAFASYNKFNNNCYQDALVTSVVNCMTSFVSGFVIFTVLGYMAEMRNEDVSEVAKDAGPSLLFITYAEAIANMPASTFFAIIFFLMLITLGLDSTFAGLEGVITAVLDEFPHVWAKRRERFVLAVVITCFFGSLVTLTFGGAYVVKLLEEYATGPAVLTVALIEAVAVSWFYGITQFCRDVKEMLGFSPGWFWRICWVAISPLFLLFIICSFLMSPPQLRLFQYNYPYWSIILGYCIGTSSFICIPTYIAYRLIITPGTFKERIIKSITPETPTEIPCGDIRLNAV

[43] = target: GABA-A receptor; anion channel (Rattus norvegicus) (UniProt O09028+P15431+P18506+P18508+P19969+P20236+P23574+P23576+P28471+P28473+P30191+P62813+P63079+P63138+Q91ZM7+Q9ES14); settings: Compound concentration 10.0 uM
[44] = target: Muscarinic acetylcholine receptor M4 (Homo sapiens) (UniProt P08173); settings: Compound concentration 10.0 uM
Sequence of Muscarinic acetylcholine receptor M4 (Homo sapiens) (P08173 whole entry): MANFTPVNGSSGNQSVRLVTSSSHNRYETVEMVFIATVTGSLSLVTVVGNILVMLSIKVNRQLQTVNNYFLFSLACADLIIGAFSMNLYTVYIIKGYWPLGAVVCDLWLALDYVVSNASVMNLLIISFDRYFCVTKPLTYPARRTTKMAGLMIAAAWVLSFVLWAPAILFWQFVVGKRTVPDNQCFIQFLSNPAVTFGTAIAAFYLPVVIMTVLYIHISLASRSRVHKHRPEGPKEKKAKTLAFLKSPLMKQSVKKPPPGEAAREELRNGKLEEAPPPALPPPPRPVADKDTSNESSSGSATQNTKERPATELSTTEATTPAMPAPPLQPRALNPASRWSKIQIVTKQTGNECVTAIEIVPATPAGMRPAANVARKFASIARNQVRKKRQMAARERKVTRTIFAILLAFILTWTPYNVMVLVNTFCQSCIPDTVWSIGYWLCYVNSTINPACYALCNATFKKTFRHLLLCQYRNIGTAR

Question: C[C@H](NC(=O)c1cnc2n1[C@](C)(Cc1ccc(C#N)cc1)C(=O)N2c1cc(Cl)c(F)c(Cl)c1)C(=O)NC1(c2ccccn2)CC1 [BI 1950] was tested. Which residual activity [1] did it give?
Answer: 98%

Question: What about the residual activity [2] of the same compound?
Answer: 99%

Question: What about the residual activity [3] of the same compound?
Answer: 100%

Question: And the residual activity [4]?
Answer: 100%

Question: And the residual activity [5]?
Answer: 99%

Question: What about the residual activity [6] of the same compound?
Answer: 100%

Question: And the residual activity [7]?
Answer: 100%

Question: And the residual activity [8]?
Answer: 100%

Question: And the residual activity [9]?
Answer: 100%

Question: And the residual activity [10]?
Answer: 100%

Question: And the residual activity [11]?
Answer: 100%

Question: What about the residual activity [12] of the same compound?
Answer: 100%

Question: And the residual activity [13]?
Answer: 100%

Question: What about the residual activity [14] of the same compound?
Answer: 100%

Question: And the residual activity [15]?
Answer: 85%

Question: What about the residual activity [16] of the same compound?
Answer: 100%

Question: And the residual activity [17]?
Answer: 100%

Question: What about the residual activity [18] of the same compound?
Answer: 90%

Question: And the residual activity [19]?
Answer: 100%

Question: What about the residual activity [20] of the same compound?
Answer: 100%

Question: What about the residual activity [21] of the same compound?
Answer: 89%

Question: And the residual activity [22]?
Answer: 100%

Question: What about the residual activity [23] of the same compound?
Answer: 83%

Question: And the residual activity [24]?
Answer: 100%

Question: What about the residual activity [25] of the same compound?
Answer: 100%

Question: What about the residual activity [26] of the same compound?
Answer: 100%

Question: And the residual activity [27]?
Answer: 100%

Question: And the residual activity [28]?
Answer: 100%

Question: What about the residual activity [29] of the same compound?
Answer: 90%

Question: What about the residual activity [30] of the same compound?
Answer: 100%

Question: And the residual activity [31]?
Answer: 100%

Question: What about the residual activity [32] of the same compound?
Answer: 100%

Question: And the residual activity [33]?
Answer: 100%

Question: And the residual activity [34]?
Answer: 100%

Question: What about the residual activity [35] of the same compound?
Answer: 100%

Question: What about the residual activity [36] of the same compound?
Answer: 75%

Question: What about the residual activity [37] of the same compound?
Answer: 85%

Question: What about the residual activity [38] of the same compound?
Answer: 100%

Question: And the residual activity [39]?
Answer: 100%

Question: And the residual activity [40]?
Answer: 24%

Question: And the residual activity [41]?
Answer: 100%

Question: And the inhibition [42]?
Answer: -4.33%

Question: What about the inhibition [43] of the same compound?
Answer: -4.17%

Question: And the inhibition [44]?
Answer: 12.1%

Question: How did the residual activity [1] turn out when C[C@@]1(Cc2ccc(C#N)cc2)C(=O)N(c2cc(Cl)cc(Cl)c2)c2ncc(C(=O)NC3(c4nc(C5CCC5)no4)CC3)n21 [BI 9446] was run?
Answer: 100%

Question: What about the residual activity [2] of the same compound?
Answer: 100%

Question: And the residual activity [3]?
Answer: 100%

Question: What about the residual activity [4] of the same compound?
Answer: 100%

Question: What about the residual activity [5] of the same compound?
Answer: 92%

Question: What about the residual activity [6] of the same compound?
Answer: 81%

Question: What about the residual activity [7] of the same compound?
Answer: 91%

Question: And the residual activity [8]?
Answer: 99%

Question: And the residual activity [9]?
Answer: 100%

Question: What about the residual activity [10] of the same compound?
Answer: 100%

Question: And the residual activity [11]?
Answer: 100%

Question: What about the residual activity [12] of the same compound?
Answer: 100%

Question: And the residual activity [13]?
Answer: 100%

Question: And the residual activity [14]?
Answer: 100%

Question: What about the residual activity [15] of the same compound?
Answer: 87%

Question: What about the residual activity [16] of the same compound?
Answer: 100%

Question: And the residual activity [17]?
Answer: 100%

Question: And the residual activity [18]?
Answer: 100%

Question: What about the residual activity [19] of the same compound?
Answer: 100%

Question: What about the residual activity [20] of the same compound?
Answer: 100%

Question: What about the residual activity [21] of the same compound?
Answer: 80%

Question: And the residual activity [22]?
Answer: 100%

Question: What about the residual activity [23] of the same compound?
Answer: 92%

Question: What about the residual activity [24] of the same compound?
Answer: 92%

Question: And the residual activity [25]?
Answer: 100%

Question: And the residual activity [26]?
Answer: 93%

Question: What about the residual activity [27] of the same compound?
Answer: 100%

Question: What about the residual activity [28] of the same compound?
Answer: 85%

Question: What about the residual activity [29] of the same compound?
Answer: 99%

Question: What about the residual activity [30] of the same compound?
Answer: 100%

Question: And the residual activity [31]?
Answer: 100%

Question: And the residual activity [32]?
Answer: 12%

Question: What about the residual activity [33] of the same compound?
Answer: 100%

Question: And the residual activity [34]?
Answer: 100%

Question: And the residual activity [35]?
Answer: 100%

Question: What about the residual activity [36] of the same compound?
Answer: 98%

Question: What about the residual activity [37] of the same compound?
Answer: 100%

Question: And the residual activity [38]?
Answer: 100%

Question: And the residual activity [39]?
Answer: 95%

Question: And the residual activity [40]?
Answer: 91%

Question: And the residual activity [41]?
Answer: 100%

Question: And the inhibition [42]?
Answer: 5.35%

Question: What about the inhibition [43] of the same compound?
Answer: -8.68%

Question: What about the inhibition [44] of the same compound?
Answer: 21.6%
